From PMC10490225, “Genome-Wide Characterization of Soybean Hexokinase Genes Reveals a Positive Role of GmHXK15 in Alkali Stress Response” (Plants, 2023)

Test system: T1, GmHXK15
T1 construct: CDS in pET32a(+) (NcoI/XhoI), His-tagged fusion, E. coli Rosetta / DE3, Ni-NTA
Assay: initial velocity, Michaelis-Menten / Eadie-Hofstee
Format: biochemical, Glycine max
Settings: assay pH, temperature and ATP not stated

OCC1(O)OC[C@@H](O)[C@@H](O)[C@@H]1O (some centres unmarked) [fructose]
Km (varied fructose): 1300 µM

OC[C@H]1OC(O)[C@H](O)[C@@H](O)[C@@H]1O (some centres unmarked) [glucose]
Km (varied glucose): 60 µM
